{"source": "paper PMC11432330", "about": "“Novel Drug-like HsrA Inhibitors Exhibit Potent Narrow-Spectrum Antimicrobial Activities against Helicobacter pylori” (International Journal of Molecular Sciences, 2024)", "test_system": "H. pylori 26695", "experiment": "In vivo inhibition of HsrA: RNA-Seq transcriptomic analysis of exposed cells", "format": "cell-based, Helicobacter pylori", "settings": "for log2 Fold Change: exposed to lethal concentrations vs control", "experimental": "Bacterial growth from three blood agar plates of H. pylori ATCC 700392 (aka 26695) incubated for 48 h at 37 °C under microaerobic conditions was aseptically resuspended in BHI + FBS and adjusted to 10^7 CFU/mL. BHI broth cultures were incubated microaerobically at 37 °C for 24 h. […] At this time, bacterial growth was stopped by adding 1.5 mL ice-cold RNA stop solution (95% absolute ethanol, 5% acid-buffered phenol) and subsequently incubated on ice. Control samples were exposed to the same amount of DMSO instead of the inhibitor. Helicobacter cells from all samples were harvested by centrifugation (4000 rpm at 4 °C for 10 min), then the pellets were quickly frozen by immersion in liquid nitrogen and stored at −80 °C.\nRNA-Seq analysis was performed by GENEWIZ (Azenta Life Sciences, Leipzig, Germany). Frozen cell pellets from two biological replicates of each treatment condition were properly submitted to GENEWIZ in dry ice. RNA-Seq libraries were prepared according to standard protocols via rRNA depletion, RNA fragmentation and random priming, reverse transcription, 5’-phosphorylation and dA-tailing of cDNAs, adaptor ligation, and PCR enrichment. Once the quality of each library was confirmed, they were sequenced on an Illumina NovaSeq 6000 (Illumina, San Diego, CA, USA) with 150-bp paired-ends. Raw sequence reads were filtered to remove possible adapter sequences and nucleotides with poor quality using Trimmomatic v.0.36 [105]. The trimmed reads were subsequently mapped to the H. pylori strain 26695 reference genome NC_000915.1 available on NCBI, by using the Bowtie2 aligner v.2.2.6 [106]. Unique gene hit counts were calculated by using featureCounts from the Subread package v.1.5.2. Only unique reads that fell within the gene regions were counted. Using DESeq2 [108], a comparison of the gene expression between the control and treated groups of samples was performed. The Wald test was used to generate p-values and log2 fold changes. Genes with an adjusted p-value < 0.05 and absolute log2 fold change >1 were considered as differentially expressed genes (DEGs) for each comparison. The RNA-Seq data generated in this study have been deposited in ArrayExpress with the accession number E-MTAB-14255.", "data": [{"compound": "NC(=NOC(=O)Nc1ccc(Cl)cc1)c1csc([N+](=O)[O-])c1", "note": "[Ligand V, N′-{[(4-chloroanilino)carbonyl]}oxy-5-nitrothiophene-3-carboximidamide]", "values": [{"measurement": "log2 Fold Change HP0986", "setting": "gene HP0986, lethal concentrations of V vs control", "value": 0.434}, {"measurement": "log2 Fold Change", "setting": "gene HP0987", "value": -0.503}, {"measurement": "log2 Fold Change HP0989", "setting": "gene HP0989, lethal concentrations of V vs control", "value": 0.305}, {"measurement": "log2 Fold Change HP0993", "setting": "gene HP0993, lethal concentrations of V vs control", "value": 0.415}, {"measurement": "log2 Fold Change HP0995", "setting": "gene HP0995, lethal concentrations of V vs control", "value": 0.339}, {"measurement": "log2 Fold Change HP0997", "setting": "gene HP0997, lethal concentrations of V vs control", "value": 0.344}, {"measurement": "log2 Fold Change HP1008", "setting": "gene HP1008, lethal concentrations of V vs control", "value": 0.406}, {"measurement": "log2 Fold Change HP1023", "setting": "gene HP1023, lethal concentrations of V vs control", "value": 0.173}, {"measurement": "log2 Fold Change HP1030", "setting": "gene HP1030, lethal concentrations of V vs control", "value": 0.181}, {"measurement": "log2 Fold Change HP1036", "setting": "gene HP1036, lethal concentrations of V vs control", "value": 0.464}, {"measurement": "log2 Fold Change", "setting": "gene HP1042", "value": -0.579}, {"measurement": "log2 Fold Change HP1057", "setting": "gene HP1057, lethal concentrations of V vs control", "value": 0.304}, {"measurement": "log2 Fold Change", "setting": "gene HP1067", "value": -0.595}, {"measurement": "log2 Fold Change HP1080", "setting": "gene HP1080, lethal concentrations of V vs control", "value": 0.450}, {"measurement": "log2 Fold Change HP1083", "setting": "gene HP1083, lethal concentrations of V vs control", "value": 0.380}, {"measurement": "log2 Fold Change HP1088", "setting": "gene HP1088, lethal concentrations of V vs control", "value": 0.367}, {"measurement": "log2 Fold Change HP1091", "setting": "gene HP1091, lethal concentrations of V vs control", "value": 0.326}, {"measurement": "log2 Fold Change HP1094", "setting": "gene HP1094, lethal concentrations of V vs control", "value": 0.330}, {"measurement": "log2 Fold Change HP1095", "setting": "gene HP1095, lethal concentrations of V vs control", "value": 0.451}, {"measurement": "log2 Fold Change HP1096", "setting": "gene HP1096, lethal concentrations of V vs control", "value": 0.362}, {"measurement": "log2 Fold Change HP1098", "setting": "gene HP1098, lethal concentrations of V vs control", "value": 0.266}, {"measurement": "log2 Fold Change", "setting": "gene HP1102", "value": 1.324}, {"measurement": "log2 Fold Change", "setting": "gene HP1112", "value": -0.531}, {"measurement": "log2 Fold Change HP1113", "setting": "gene HP1113, lethal concentrations of V vs control", "value": 0.235}, {"measurement": "log2 Fold Change HP1115", "setting": "gene HP1115, lethal concentrations of V vs control", "value": 0.309}, {"measurement": "log2 Fold Change HP1120", "setting": "gene HP1120, lethal concentrations of V vs control", "value": 0.296}, {"measurement": "log2 Fold Change HP1122", "setting": "gene HP1122, lethal concentrations of V vs control", "value": 0.364}, {"measurement": "log2 Fold Change HP1125", "setting": "gene HP1125, lethal concentrations of V vs control", "value": 0.243}, {"measurement": "log2 Fold Change HP1132", "setting": "gene HP1132, lethal concentrations of V vs control", "value": 0.451}, {"measurement": "log2 Fold Change HP1139", "setting": "gene HP1139, lethal concentrations of V vs control", "value": 0.341}, {"measurement": "log2 Fold Change HP1140", "setting": "gene HP1140, lethal concentrations of V vs control", "value": 0.260}, {"measurement": "log2 Fold Change HP1142", "setting": "gene HP1142, lethal concentrations of V vs control", "value": 0.424}, {"measurement": "log2 Fold Change HP1154", "setting": "gene HP1154, lethal concentrations of V vs control", "value": 0.259}, {"measurement": "log2 Fold Change HP1157", "setting": "gene HP1157, lethal concentrations of V vs control", "value": 0.263}, {"measurement": "log2 Fold Change", "setting": "gene HP1159", "value": -0.549}, {"measurement": "log2 Fold Change HP1164", "setting": "gene HP1164, lethal concentrations of V vs control", "value": 0.208}, {"measurement": "log2 Fold Change HP1165", "setting": "gene HP1165, lethal concentrations of V vs control", "value": 0.470}, {"measurement": "log2 Fold Change HP1171", "setting": "gene HP1171, lethal concentrations of V vs control", "value": 0.290}, {"measurement": "log2 Fold Change", "setting": "gene HP1184", "value": -0.471}, {"measurement": "log2 Fold Change HP1193", "setting": "gene HP1193, lethal concentrations of V vs control", "value": 0.413}, {"measurement": "log2 Fold Change", "setting": "gene HP1196", "value": -0.491}, {"measurement": "log2 Fold Change HP1218", "setting": "gene HP1218, lethal concentrations of V vs control", "value": 0.194}, {"measurement": "log2 Fold Change HP1221", "setting": "gene HP1221, lethal concentrations of V vs control", "value": 0.426}, {"measurement": "log2 Fold Change HP1222", "setting": "gene HP1222, lethal concentrations of V vs control", "value": 0.384}, {"measurement": "log2 Fold Change HP1226", "setting": "gene HP1226, lethal concentrations of V vs control", "value": 0.186}, {"measurement": "log2 Fold Change", "setting": "gene HP1232", "value": -0.511}, {"measurement": "log2 Fold Change HP1234", "setting": "gene HP1234, lethal concentrations of V vs control", "value": 0.340}, {"measurement": "log2 Fold Change", "setting": "gene HP1243", "value": 1.352}, {"measurement": "log2 Fold Change HP1251", "setting": "gene HP1251, lethal concentrations of V vs control", "value": 0.458}, {"measurement": "log2 Fold Change", "setting": "gene HP1258", "value": -0.491}, {"measurement": "log2 Fold Change HP1261", "setting": "gene HP1261, lethal concentrations of V vs control", "value": 0.181}, {"measurement": "log2 Fold Change HP1262", "setting": "gene HP1262, lethal concentrations of V vs control", "value": 0.367}, {"measurement": "log2 Fold Change HP1264", "setting": "gene HP1264, lethal concentrations of V vs control", "value": 0.389}, {"measurement": "log2 Fold Change HP1267", "setting": "gene HP1267, lethal concentrations of V vs control", "value": 0.146}, {"measurement": "log2 Fold Change", "setting": "gene HP1270", "value": -0.476}, {"measurement": "log2 Fold Change HP1285", "setting": "gene HP1285, lethal concentrations of V vs control", "value": 0.248}, {"measurement": "log2 Fold Change HP1322", "setting": "gene HP1322, lethal concentrations of V vs control", "value": 0.318}, {"measurement": "log2 Fold Change HP1337", "setting": "gene HP1337, lethal concentrations of V vs control", "value": 0.239}, {"measurement": "log2 Fold Change", "setting": "gene HP1343", "value": -0.493}, {"measurement": "log2 Fold Change", "setting": "gene HP1346", "value": -0.518}, {"measurement": "log2 Fold Change HP1352", "setting": "gene HP1352, lethal concentrations of V vs control", "value": 0.160}, {"measurement": "log2 Fold Change", "setting": "gene HP1355", "value": -0.601}, {"measurement": "log2 Fold Change", "setting": "gene HP1357", "value": -0.489}, {"measurement": "log2 Fold Change HP1358", "setting": "gene HP1358, lethal concentrations of V vs control", "value": 0.185}, {"measurement": "log2 Fold Change HP1359", "setting": "gene HP1359, lethal concentrations of V vs control", "value": 0.220}, {"measurement": "log2 Fold Change HP1361", "setting": "gene HP1361, lethal concentrations of V vs control", "value": 0.344}, {"measurement": "log2 Fold Change HP1363", "setting": "gene HP1363, lethal concentrations of V vs control", "value": 0.291}, {"measurement": "log2 Fold Change HP1366", "setting": "gene HP1366, lethal concentrations of V vs control", "value": 0.348}, {"measurement": "log2 Fold Change HP1371", "setting": "gene HP1371, lethal concentrations of V vs control", "value": 0.280}, {"measurement": "log2 Fold Change HP1377", "setting": "gene HP1377, lethal concentrations of V vs control", "value": 0.474}, {"measurement": "log2 Fold Change HP1380", "setting": "gene HP1380, lethal concentrations of V vs control", "value": 0.326}, {"measurement": "log2 Fold Change", "setting": "gene HP1381", "value": -0.548}, {"measurement": "log2 Fold Change HP1385", "setting": "gene HP1385, lethal concentrations of V vs control", "value": 0.232}, {"measurement": "log2 Fold Change HP1404", "setting": "gene HP1404, lethal concentrations of V vs control", "value": 0.393}, {"measurement": "log2 Fold Change", "setting": "gene HP1411", "value": 1.307}, {"measurement": "log2 Fold Change HP1433", "setting": "gene HP1433, lethal concentrations of V vs control", "value": 0.238}, {"measurement": "log2 Fold Change HP1434", "setting": "gene HP1434, lethal concentrations of V vs control", "value": 0.407}, {"measurement": "log2 Fold Change HP1435", "setting": "gene HP1435, lethal concentrations of V vs control", "value": 0.348}, {"measurement": "log2 Fold Change HP1436", "setting": "gene HP1436, lethal concentrations of V vs control", "value": 0.297}, {"measurement": "log2 Fold Change HP1438", "setting": "gene HP1438, lethal concentrations of V vs control", "value": 0.319}, {"measurement": "log2 Fold Change", "setting": "gene HP1442", "value": -0.497}]}]}
